Data on 3 compounds can be found in US20170000784A1, “Autophagy Inhibitors” (priority 2013, published 2017).

Like-named read-outs stand apart in the source and are kept apart here.

One series relates to U2OS cells. The series is described as follows: Cell viability (IC50) screen, CellTiter Glo, U2OS. It is filed as cell-based. To be noted: for IC50: U2OS cell viability, CellTiter Glo, 48 hours. Here is the method: (§1) U2OS cells were seeded at 500 cells per well in 5A McCoy's with 10% FBS in 96-well clear bottom, black-walled tissue culture plates. All melanoma cell lines (A375, UACC-91, UACC-257, UACC-502, UACC-903, UACC-1308, UACC-1940, UACC-2534, and UACC-3291) were seeded at 5,000 cells per well in RPMI 1640 with 10% FBS in 96-well clear bottom, black-walled tissue culture plates. After 24 hour incubation, cells were treated with VATG compounds in triplicate with a 10-point half log dose response from […] for 24 and 48 hours. Medium was removed and 2× CellTiter Glo (Promega, G7571) reagent mixed 1:1 with Opti-MEM (Invitrogen, 31985062) was added at 100 μL per well and incubated at room temperature for 15 minutes while rocking. 75 μL per well was moved to a white-walled 96-well plate and luminescence quantified using the 96 LUM program on an EnVision plate reader (PerkinElmer) and exported for analysis. All triplicate data points were averaged and luminescent readings for each treatment were normalized to vehicle control for change in viability. Dose response curves were input into SigmaPlot for IC50 calculations (Systat Software Inc).
A general note: In ATP-based viability assays light output follows the ATP content of the culture.

For another series, the system named is A375 melanoma cell line. Description: Cell viability (IC50) screen, CellTiter Glo, A375. It is filed as cell-based. To be noted: Homo sapiens. On the procedure:
as §1

For series [1], the system named is UACC-257 melanoma cell line. Description: Cell viability (IC50) screen, CellTiter Glo, UACC-257. The settings on record: Homo sapiens. It is filed as cell-based. Here is the method: as §1
For series [2], the system named is UACC-502 melanoma cell line. The series is described as follows: Cell viability (IC50) screen, CellTiter Glo, UACC-502. It is filed as cell-based. The settings on record: Homo sapiens. Here is the method:
as §1

Series [3] deals with UACC-3291 melanoma cell line. Description: Cell viability (IC50) screen, CellTiter Glo, UACC-3291. It is filed as cell-based. To be noted: Homo sapiens. On the procedure:
as §1

For another series, the system named is A375 cells. It counts as cell-based, human. To be noted: for IC10 concentration / Relative Growth Inhibition Compound A: A375 soft agar; for IC10 concentration: treated every other day for three weeks, single agent; for reduction of colony formation: combinatorial treatment with PLX-4032, each at IC10, FIG. 18A; for Relative Growth Inhibition Compound A: single compound at IC10; for expected (additive) reduction of colony formation: combination with PLX-4032, Bliss Independence prediction. The text has this:
After three weeks of treatment, cells were fixed and stained in 1% paraformaldehyde in 1×PBS containing 0.005% crystal violet overnight. Cells were destained with multiple washes of 1×PBS to remove background staining. Plates were scanned and images quantified using Nikon NIS Elements software. To quantify, each image was sharpened and an ROI of equal size drawn around each well. Intensity thresholds were set to include all pixels equal to or greater than the intensity of the mean background fluorescence. Objects within the threshold of each ROI were quantified using an automated object count function and exported for analysis. Object number was quantified to denote total colony formation. […] Additivity was established when the expected viability determined by the Bliss independence model was equal to the actual viability. This model was chosen since the effects of both compounds are mutually non-exclusive and follow first order Michaelis-Menten kinetics.
To determine if the effects of each combination were more than, less than, or equal to additive, predictions for additivity were made using the Bliss Independence (Table 7), as disclosed in Yan H, Zhang B, Li S, Zhao Q. A formal model for analyzing drug combination effects and its application in TNF-alpha-induced NFkappaB pathway. BMC Syst. […] Drug combination studies and their synergy quantification using the Chou-Talalay method.

Series [4] deals with phospho-ERK1/2 and LC3-II in A375 cells. The series is described as follows: Western blot of A375 cells treated with PLX-4032 with and without autophagy inhibitors. To be noted: in combination with PLX-4032, FIG. 16C. It counts as cell-based, human. On the procedure: For Western blotting, U2OS cells were seeded in 10 cm plates in 5A McCoy's with 10% FBS at 1×10^6 cells per plate. All melanoma lines were seeded in 10 cm plates in RPMI 1640 with 10% FBS at 1×10^6 cells per plate. After 24 hours, cells were treated with CQ, QN, Example 27, or Example 7 in a dose response of 0.3 μM, 1 μM, 3 μM, 10 μM, and 30 μM for three hours. A375 were treated with PLX-4032 (Selleck Chemicals, S1267) at 10 nM, 100 nM, and 1 μM for three hours with and without CQ, QN, Example 7, and Example 27 at 3 μM and 30 μM. After treatment, cells were lysed [10 mM KPO4, 1 mM EDTA, 10 mM MgCl2, 5 mM EGTA, 50 mM bis-glycerophosphate, 0.5% NP40, 0.1% Brij35, 0.1% sodium deoxycholate, 1 mM NaVO4, 5 mM NaF, 2 mM DTT, and complete protease inhibitors (Sigma, P8340-5 mL)] and 50 μg of protein was resolved by SDS-PAGE. Proteins were transferred to PVDF membranes and probed with primary antibodies [LC3 (Sigma, L7543-200UL), anti-α-tubulin (Sigma, T6199), cathepsin B (Santa Cruz, sc-13985)] for 16 hours at 4° C. followed by a secondary antibody [HRP-linked rabbit or mouse IgG (GE Healthcare, NA934 or NA931) or Odyssey IRDye 680CW Goat anti-rabbit IgG (LI-COR, 926-32221) or IRDye 800CW Goat anti-mouse IgG (LI-COR, 926-32210)] for 1 hour at room temperature. Proteins were detected with enhanced chemiluminescence or using the Odyssey machine and quantified (FIGS. 12, 15, 16, 7 and 11).
Since the melanoma cell lines are capable of undergoing autophagy and sensitive to autophagy inhibition, the inventors questioned whether autophagy inhibitors could improve the efficacy of, or sensitize melanoma cells against cytotoxic and chemotherapeutic drugs for advanced metastatic melanoma. In one example, PLX-4032 drug “vemurafenib” (marketed as ZELBORAF®) is a B-Raf enzyme inhibitor developed by Plexxikon and Genentech for the treatment of late-stage melanoma. The name “vemurafenib” comes from V600E mutated BRAF inhibition. PLX-4032, selectively targets the V600E mutant BRAF and it is unknown how this drug may affect autophagic flux. To determine the effects of the drug on autophagic flux, the present inventors performed experiments to determine whether PLX-4032 induces autophagy, as has been observed with other targeted agents. In some embodiments, the accumulation of LC3-II in response to lysosome inhibition was measured by quantitative Western blotting, as described above. A375 cells were treated with PLX-4032 (10 nM, 100 nM, and 1 μM) for three hours in the presence or absence of CQ.
On the technique in general: Immunoblotting shows a protein as a band on a membrane.

Setting [5] is: A-375, A375 cell viability, CellTiter Glo, 48 hours, read-out: IC50.
Setting [6] is: UACC-257 cell viability, CellTiter Glo, read-out: IC50.
Where [7] appears, read: UACC-502 cell viability, CellTiter Glo, read-out: IC50.
The mark [8] stands for this setting: UACC-3291 cell viability, CellTiter Glo, read-out: IC50.
[9] abbreviates: Compound A combined with AZD-8055, each at IC10.
[10] abbreviates: Compound A combined with PLX-4032, each at IC10.
The mark [11] stands for this setting: U2OS IC50 relative to quinacrine.

For the compound `CCN(CC)CCCC(C)Nc1c2ccc(Cl)cc2nc2ccc(OC)cc12` (stereo not drawn) [Quinacrine, quinacrine, reference compound], the IC50 in the series with U2OS cells (Homo sapiens, U2OS, 48 h, read-out: IC50) stood at 2500 nM; in the series on A375 melanoma cell line (setting [5]), 2300 nM; in series [1] (setting [6]) it was 3000 nM; in series [2] (setting [7]) it was 2200 nM; in series [3] (setting [8]) it was 2000 nM. The IC10 concentration with A375 cells was determined as 64 nM. Moreover, the entries for the “Actual Growth Inhibition” value with A375 cells (setting [9]) and with A375 cells (setting [10]) were 0.54 and 0.59, respectively. The “reduction of colony formation” value in the series on A375 cells turned out to be 59%.
In the case of `CN1CCN(CCNc2c3c(nc4cc(Cl)ccc24)CCCC3)CC1` [Example 27, 6-Chloro-N-(2-(4-methylpiperazin-1-yl)ethyl)-1,2,3,4-tetrahydroacridin-9-amine], in the series with U2OS cells (setting [11]), the “times less cytotoxic than QN” value came out at 10. Besides, the IC50 with U2OS cells worked out at 27000 nM; with A375 melanoma cell line (A-375, 48 h), 24300 nM; in series [1] (UACC-257), 25300 nM; in series [2] it was 42300 nM; in series [3], 25300 nM. Moreover, in series [4], the LC3II accumulation result is recorded as “greater increases in LC3II accumulation”. In the series on A375 cells, the “Relative Growth Inhibition Compound A” value turned out to be 0.37. The IC10 concentration in the series with A375 cells is on record as 2 nM. Moreover, the “Actual Growth Inhibition” value in the series with A375 cells (setting [9]) stood at 0.50; in the series with A375 cells (setting [10]), 0.62. The entries for the “Expected Bliss Additive Inhibition Value” with A375 cells (setting [9]) and in the series on A375 cells (setting [10]) were 0.44 and 0.49, respectively. In the series with A375 cells, the “expected (additive) reduction of colony formation” value is 49%. In addition, the “reduction of colony formation” value with A375 cells is reported as 62%.
For the compound `COc1ccc2nc3cc(Cl)ccc3c(NCCCCN3CCN(C)CC3)c2c1` [Example 7, 6-Chloro-2-methoxy-N-(4-(4-methylpiperazin-1-yl)butyl)acridin-9-amine], the “fold more cytotoxic than QN” value with U2OS cells (setting [11]) is given as 3.5. In addition, the IC50 in the series with U2OS cells (read-out: IC50) is 700 nM; with A375 melanoma cell line (setting [5]), 400 nM; in series [1] (setting [6]) it was 2000 nM; in series [2] (setting [7]), 1800 nM; in series [3] (setting [8]) it was 800 nM. Also, in series [4], the LC3II accumulation result is reported as “greater increases in LC3II accumulation”. In addition, in the series on A375 cells, the “Relative Growth Inhibition Compound A” value is recorded as 0.37. Moreover, the IC10 concentration with A375 cells turned out to be 5 nM. Further, the results for the “Actual Growth Inhibition” value in the series with A375 cells (setting [9]) and with A375 cells (setting [10]) were 0.57 and 0.64, respectively. Also, the figures for the “Expected Bliss Additive Inhibition Value” in the series on A375 cells (setting [9]) and in the series with A375 cells (setting [10]) were 0.44 and 0.49, respectively. Moreover, the “expected (additive) reduction of colony formation” value with A375 cells was 49%. Further, the “reduction of colony formation” value in the series on A375 cells was determined as 64%.

The IC50 is the concentration that inhibits the measured activity by half.
